The source of these data is patent publication US20260216190A1, “TREATMENT OF HEMATOLOGICAL MALIGNANCIES WITH INHIBITORS OF MENIN” (Kura Oncology, Inc., priority 2018, published 2026).

For the experiment, the target named is T1, menin-MLL interaction (Homo sapiens, UniProt O00255).
T1 sequence (O00255 1-610): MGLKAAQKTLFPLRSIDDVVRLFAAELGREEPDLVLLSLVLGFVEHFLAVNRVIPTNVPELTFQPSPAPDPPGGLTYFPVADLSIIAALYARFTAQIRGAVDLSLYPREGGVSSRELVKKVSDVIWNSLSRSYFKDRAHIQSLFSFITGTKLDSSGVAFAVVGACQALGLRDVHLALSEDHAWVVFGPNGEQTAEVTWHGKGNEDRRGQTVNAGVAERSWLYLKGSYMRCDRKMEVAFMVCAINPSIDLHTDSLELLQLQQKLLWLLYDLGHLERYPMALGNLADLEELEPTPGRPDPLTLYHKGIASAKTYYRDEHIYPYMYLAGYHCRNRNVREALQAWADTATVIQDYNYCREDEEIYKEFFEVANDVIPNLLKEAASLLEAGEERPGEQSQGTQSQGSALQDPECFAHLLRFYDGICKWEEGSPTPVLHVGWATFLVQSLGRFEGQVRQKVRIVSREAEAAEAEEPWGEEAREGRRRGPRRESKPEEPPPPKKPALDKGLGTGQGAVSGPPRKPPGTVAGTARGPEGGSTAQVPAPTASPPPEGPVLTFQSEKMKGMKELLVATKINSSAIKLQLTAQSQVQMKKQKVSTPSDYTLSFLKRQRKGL
The experiment can be described thus: Fluorescence polarization (FP) competition assay. The experiment is classed as binding. Conditions: read-out: Menin MLL 4-43 IC50.

With `Cc1c(CN2CCC(Nc3ncnc4sc(CC(F)(F)F)cc34)CC2)ccc2c1cc(C#N)n2CC(C1CC1)N1CCN(S(C)(=O)=O)CC1` (centres unmarked) [Compound I-23], the IC50 is under 50 nM. `COCCNS(=O)(=O)N1CCN([C@@H](C)Cn2c(C#N)cc3c(C)c(CN4CCC(Nc5ncnc6sc(CC(F)(F)F)cc56)CC4)ccc32)CC1` [Compound I-142]: the IC50 lay in the range of 50 to 250 nM.

As usually defined, the IC50 is the concentration needed to halve the response being measured.
